≈ marks a conversion by molar mass, not a printed value. Read-outs that look alike come from different tables or passages of the source.
Key:
[1] = system: Staphylococcus aureus 209 P JC-1; experiment: in vitro antimicrobial activity, two-fold agar-plate dilution method, S. aureus 209 P JC-1; format: cell-based
Procedure: (§1) In vitro antimicrobial activity was determined by the two-fold agar-plate dilution method as described below.
(§2) One loopful of an overnight culture of each test strain in Trypticase-soy broth (10^8 viable cells per ml) was streaked on heart infusion agar (HI-agar) containing graded concentration of antibiotics, and the minimum inhibitory concentration (MIC) was expressed in terms of meg/ml after incubation at 37° C. for 20 hours.
(§3) The data in Table 1 below present a comparison between the 2-(C1 -C6 alkyl)-cephem compounds of the present invention and known cephem compounds structurally analogous to the present compounds, differing only by alkyl substitution in the 3-position. The in vitro tests of antimicrobial activity of the compared compounds were determined by the two-fold agar plate dilution method described as follows:
as §2, with “(HI sugar)” for “(HI-agar)”, “mcg/ml” for “meg/ml”

[2] = system: Staphylococcus aureus 206; experiment: in vitro antimicrobial activity, two-fold agar plate dilution method, S. aureus 206; format: cell-based; conditions: Table 1, S. aureus 206, 37° C., 20 hours, read-out: minimum inhibitory concentration (MIC)
Procedure: (§4) The in vitro tests of antimicrobial activity of the compared compounds were determined by the two-fold agar plate dilution method described as follows: […]

[3] = system: Staphylococcus aureus 213; experiment: in vitro antimicrobial activity, two-fold agar plate dilution method, S. aureus 213; format: cell-based; conditions: Table 1, S. aureus 213, 37° C., 20 hours, read-out: minimum inhibitory concentration (MIC)
Procedure: as §4

[4] = system: Staphylococcus aureus 226; experiment: in vitro antimicrobial activity, two-fold agar plate dilution method, S. aureus 226; format: cell-based; conditions: Table 1, S. aureus 226, 37° C., 20 hours, read-out: minimum inhibitory concentration (MIC)
Procedure: as §4

[5] = system: Staphylococcus aureus 277; experiment: in vitro antimicrobial activity, two-fold agar plate dilution method, S. aureus 277; format: cell-based; conditions: Table 1, S. aureus 277, 37° C., 20 hours, read-out: minimum inhibitory concentration (MIC)
Procedure: as §4

[6] = system: Staphylococcus aureus 278; experiment: in vitro antimicrobial activity, two-fold agar plate dilution method, S. aureus 278; format: cell-based; conditions: Table 1, S. aureus 278, 37° C., 20 hours, read-out: minimum inhibitory concentration (MIC)
Procedure: as §4

[7] = system: Bacillus subtilis ATCC-6633; experiment: in vitro antimicrobial activity, two-fold agar-plate dilution method, B. subtilis ATCC-6633; format: cell-based
Procedure: as §1, §2, §3
as §2, with “(HI sugar)” for “(HI-agar)”, “mcg/ml” for “meg/ml”

E. coli 327 [8] = experiment: in vitro MIC against E. coli 327 at different inoculum sizes (Table 2); format: cell-based
E. coli 327 [9] = experiment: protecting effect against experimental infections in mice; format: in vivo, mice (male ICR strain); conditions: E. coli 327, intraperitoneal inoculation 8.5×10^2 cells/mouse, subcutaneous one hour after challenge, survival after one week, probit method
Procedure: The following test describes the method of estimating the protecting effects of Applicants' compound (18) versus cited […], "Keflex", against experimental infections in mice.
Male ICR strain mice aged 4 weeks, each weighing 20-23 g were used in groups of 8 mice. The organisms precultured overnight at 37° C. on HI-agar were suspended in 5% mucin solution to obtain cell concentrations of 8.5×10^2 cells/mouse. Mice were inoculated intraperitoneally with 0.5 ml of the suspension. Each of the test antibiotics was given subcutaneously to the mice one hour after challenge. The ED50 values were found by the probit method from the number of surviving mice after one week of observation.

[10] = 209PJC1, Table 1, S. aureus 209 P JC-1, 37° C., 20 hours, read-out: minimum inhibitory concentration (MIC)
[11] = ATCC6633, Table 1, B. subtilis ATCC-6633, 37° C., 20 hours, read-out: minimum inhibitory concentration (MIC)
[12] = Escherichia coli, 327, E. coli 327, inoculum size 10^4
[13] = Escherichia coli, 327, E. coli 327, inoculum size 10^6
[14] = Escherichia coli, 327, E. coli 327, inoculum size 10^8
[15] = S. aureus 209-P JC-1, 37° C., 20 hours, HI-agar, read-out: MIC
[16] = ATCC6633, B. subtilis ATCC-6633, 37° C., 20 hours, HI-agar, read-out: MIC

| Structure (SMILES) | MIC [1, 10] [µg/mL] | MIC [2] [µg/mL] | MIC [3] [µg/mL] | MIC [4] [µg/mL] | MIC [5] [µg/mL] | MIC [6] [µg/mL] | MIC [7, 11] [µg/mL] | MIC [1, 15] [µg/mL] | MIC [7, 16] [µg/mL] | MIC (E. coli 327 [8]; [12]) [µg/mL] | MIC (E. coli 327 [8]; [13]) [µg/mL] | MIC (E. coli 327 [8]; [14]) [µg/mL] | ED50 (E. coli 327 [9]) [mg/mouse] | MIC ([1]; 209PJC1, 20 h, read-out: minimum inhibitory concentration (MIC)) [µg/mL] | MIC ([7]; ATCC6633, 20 h, read-out: minimum inhibitory concentration (MIC)) [µg/mL] |
| --- | --- | --- | --- | --- | --- | --- | --- | --- | --- | --- | --- | --- | --- | --- | --- |
| CC1=C(C(=O)O)N2C(=O)C(NC(=O)C(N)c3ccccc3)[C@H]2SC1 (stereo partly shown) [cited compound (18), 3-Methyl-7-(2-phenylglycyl)amino-3-cephem-4-carboxylic acid, reference compound] | – | 6.25 (≈ 18 µM) | 12.5 (≈ 36 µM) | 12.5 (≈ 36 µM) | 3.13 (≈ 9.01 µM) | 3.13 (≈ 9.01 µM) | – | – | – | 6.25 (≈ 18 µM) | 12.5 (≈ 36 µM) | 100 (≈ 288 µM) | 1.06 | 3.13 (≈ 9.01 µM) | 1.56 (≈ 4.49 µM) |
| CC1C=C(C(=O)O)N2C(=O)C(NC(=O)C(O)c3ccccc3)[C@H]2S1 (stereo partly shown) [Applicants' compound (7), 2-Methyl-7-(2-hydroxy-2-phenylacetamido)-3-cephem-4-carboxylic acid] | 0.78 (≈ 2.24 µM) | 1.56 (≈ 4.48 µM) | 1.56 (≈ 4.48 µM) | 1.56 (≈ 4.48 µM) | 6.25 (≈ 17.9 µM) | 1.56 (≈ 4.48 µM) | 0.39 (≈ 1.12 µM) | 0.78 (≈ 2.24 µM) | 0.39 (≈ 1.12 µM) | – | – | – | – | – | – |
| CC1C=C(C(=O)O)N2C(=O)C(NC(=O)Cc3cccs3)[C@H]2S1 (stereo partly shown) [Applicants' compound (5), 2-Methyl-7-[2-(2-thienyl)acetamido]-3-cephem-4-carboxylic acid] | 0.78 (≈ 2.3 µM) | 1.56 (≈ 4.61 µM) | 1.56 (≈ 4.61 µM) | 1.56 (≈ 4.61 µM) | 1.56 (≈ 4.61 µM) | 1.56 (≈ 4.61 µM) | 0.39 (≈ 1.15 µM) | 0.78 (≈ 2.3 µM) | 0.39 (≈ 1.15 µM) | – | – | – | – | – | – |
| CC1C=C(C(=O)O)N2C(=O)C(NC(=O)C(N=[N+]=[N-])c3ccccc3)[C@H]2S1 (stereo partly shown) [Applicants' compound (10), 2-Methyl-7-(2-azido-2-phenylacetamido)-3-cephem-4-carboxylic acid] | 1.56 (≈ 4.18 µM) | 1.56 (≈ 4.18 µM) | 1.56 (≈ 4.18 µM) | 1.56 (≈ 4.18 µM) | 12.5 (≈ 33.5 µM) | 1.56 (≈ 4.18 µM) | 0.39 (≈ 1.04 µM) | 1.56 (≈ 4.18 µM) | 0.39 (≈ 1.04 µM) | – | – | – | – | – | – |
| CC1C=C(C(=O)O)N2C(=O)C(NC(=O)Cc3cccc(Cl)c3)[C@H]2S1 (stereo partly shown) [Applicants' compound (6), 2-Methyl-7-[2-(3-chlorophenyl)acetamido]-3-cephem-4-carboxylic acid] | 0.1 (≈ 0.273 µM) | 0.39 (≈ 1.06 µM) | 0.3 (≈ 0.818 µM) | 0.2 (≈ 0.545 µM) | 0.78 (≈ 2.13 µM) | 0.39 (≈ 1.06 µM) | 0.2 (≈ 0.545 µM) | 0.1 (≈ 0.273 µM) | 0.2 (≈ 0.545 µM) | – | – | – | – | – | – |

Second part, led by results:

| MIC [1, 10] [µg/mL] | MIC [2] [µg/mL] | MIC [3] [µg/mL] | MIC [4] [µg/mL] | MIC [5] [µg/mL] | MIC [6] [µg/mL] | MIC [7, 11] [µg/mL] | MIC [1, 15] [µg/mL] | MIC [7, 16] [µg/mL] | Structure (SMILES) | MIC (E. coli 327 [8]; [12]) [µg/mL] | MIC (E. coli 327 [8]; [13]) [µg/mL] | MIC (E. coli 327 [8]; [14]) [µg/mL] | ED50 (E. coli 327 [9]) [mg/mouse] | MIC ([1]; 209PJC1, 20 h, read-out: minimum inhibitory concentration (MIC)) [µg/mL] | MIC ([7]; ATCC6633, 20 h, read-out: minimum inhibitory concentration (MIC)) [µg/mL] |
| --- | --- | --- | --- | --- | --- | --- | --- | --- | --- | --- | --- | --- | --- | --- | --- |
| 6.25 (≈ 18 µM) | 12.5 (≈ 36 µM) | 50 (≈ 144 µM) | 25 (≈ 72 µM) | 12.5 (≈ 36 µM) | 25 (≈ 72 µM) | 1.56 (≈ 4.49 µM) | – | – | CC1C=C(C(=O)O)N2C(=O)C(NC(=O)C(N)c3ccccc3)C2S1 (stereo not shown) [Applicants' compound (18), 2-Methyl-7-(2-phenylglycyl)-amino-3-cephem-4-carboxylic acid] | 12.5 (≈ 36 µM) | 50 (≈ 144 µM) | 100 (≈ 288 µM) | 0.25 | – | – |
| 3.13 (≈ 8.4 µM) | 3.13 (≈ 8.4 µM) | 6.25 (≈ 16.8 µM) | 6.25 (≈ 16.8 µM) | 6.25 (≈ 16.8 µM) | 3.13 (≈ 8.4 µM) | 1.56 (≈ 4.19 µM) | – | – | CC1=C(C(=O)O)N2C(=O)C(NC(=O)CSc3nncs3)[C@H]2SC1 (stereo partly shown) [cited compound (11), 3-Methyl-7-[2-(1,3,4-thiadiazol-2-ylthio)acetamido]-3-cephem-4-carboxylic acid, reference compound] | – | – | – | – | – | – |
| 3.13 (≈ 8.98 µM) | 12.5 (≈ 35.9 µM) | 25 (≈ 71.8 µM) | 12.5 (≈ 35.9 µM) | 12.5 (≈ 35.9 µM) | 12.5 (≈ 35.9 µM) | 1.56 (≈ 4.48 µM) | – | – | CC1=C(C(=O)O)N2C(=O)C(NC(=O)C(O)c3ccccc3)[C@H]2SC1 (stereo partly shown) [cited compound (7), 3-Methyl-7-(2-hydroxy-2-phenylacetamido)-3-cephem-4-carboxylic acid, reference compound] | – | – | – | – | – | – |
| 1.56 (≈ 4.75 µM) | 3.13 (≈ 9.53 µM) | 6.25 (≈ 19 µM) | 3.13 (≈ 9.53 µM) | 1.56 (≈ 4.75 µM) | 3.13 (≈ 9.53 µM) | 1.56 (≈ 4.75 µM) | 1.56 (≈ 4.75 µM) | 1.56 (≈ 4.75 µM) | C=CCSCC(=O)NC1C(=O)N2C(C(=O)O)=CC(C)S[C@H]12 (stereo partly shown) [Applicants' compound (14), 2-Methyl-7-[2-(allylthio)acetamido]-3-cephem-4-carboxylic acid] | – | – | – | – | – | – |
| 3.13 (≈ 9.39 µM) | 6.25 (≈ 18.7 µM) | 6.25 (≈ 18.7 µM) | 6.25 (≈ 18.7 µM) | 25 (≈ 75 µM) | 6.25 (≈ 18.7 µM) | 0.78 (≈ 2.34 µM) | 3.13 (≈ 9.39 µM) | 0.78 (≈ 2.34 µM) | CC1C=C(C(=O)O)N2C(=O)C(NC(=O)Cc3cccnc3)[C@H]2S1 (stereo partly shown) [Applicants' compound (15), 2-Methyl-7-[2-(3-pyridyl)acetamido]-3-cephem-4-carboxylic acid] | – | – | – | – | – | – |
| 6.25 (≈ 22.2 µM) | 6.25 (≈ 22.2 µM) | 12.5 (≈ 44.4 µM) | 12.5 (≈ 44.4 µM) | 12.5 (≈ 44.4 µM) | 12.5 (≈ 44.4 µM) | 3.13 (≈ 11.1 µM) | – | – | CC1=C(C(=O)O)N2C(=O)C(NC(=O)CC#N)[C@H]2SC1 (stereo partly shown) [cited compound (13), 3-Methyl-7-(2-cyanoacetamido)-3-cephem-4-carboxylic acid, reference compound] | – | – | – | – | – | – |

From patent publication US4308380A, “2-Lower alkyl-2 or 3-cephem-4-carboxylic acid derivatives” (Fujisawa Pharmaceutical Co., Ltd., priority 1973, dated 1981)
